In US20100158897A1, “PAI-1 MODULATORS FOR THE TREATMENT OF OCULAR DISORDERS” (ALCON RESEARCH, LTD., priority 2006, published 2010):

Tests used:
[1] = tested on: PAI-1; test: PAI-1 ELISA: effect on TGFβ2-induced total PAI-1 protein in HTM cell supernatants; format: cell-based, human; settings: TGFβ2 5 ng/mL, 24 h
Protocol: FIGS. 9-11 present graphs showing the effect of cilostazol, 3,4-dehydro cilostazol, and cilostamide on TGFβ2-induced (5 ng/mL; 24 h) total PAI-1 protein in supernatants from human trabecular meshwork (HTM) cell lines. Cilostazol was tested against three different HTM cell lines (GTM, NTM470-05, and GTM191-04).
(§1) Human TM cell culture: Human TM cells were isolated from post-mortem human donor tissue, characterized, and cultured as previously described. Generation and characterization of the transformed (GTM-3) cell line was also as previously described (Pang et al., Preliminary characterization of a transformed cell strain derived from human trabecular meshwork., Curr. Eye Res., Vol. 13:51-63, 1994.)
(§2) PAI-1 ELISA: 24-well plates of TM cell cultures were serum-deprived for 24 h followed by an additional 24 h (or as indicated) incubation with TGFβ2 in a serum-free medium. Aliquots of supernatants from the treated cultures were quantified for secreted PAI-1 content by means of human PAI-1 ELISA kit (American Diagnostica).

[2] = cited from earlier work
[3] = tested on: intraocular pressure (IOP); test: Ad.TGFβ2-induced ocular hypertension in mice, topical ocular administration; format: in vivo; settings: conscious mice, rebound tonometer
Protocol: FIGS. 12a-12b are graphs showing the effect of topical ocular administration of various concentrations of cilostazol compared to control on Ad.TGFβ2-induced ocular hypertension in mice. Ad.TGFβ2 viral vector was injected on Day 0. Dosing with Cilostazol or vehicle was performed on the indicated days (denoted by horizontal bars). Intraocular pressure (IOP) was monitored in conscious mice using a rebound tonometer.

[4] = tested on: retinal ganglion cells; settings: post-axotomy; cited from earlier work
[5] = tested on: PAI-1; settings: non-ocular tissues of rats; cited from earlier work
[6] = tested on: optic nerve head and retina; settings: in vivo; cited from earlier work
[7] = tested on: human TM cells (GTM-3, GTM730); test: TM cell adhesion to vitronectin substrate (InnoCyte ECM Cell Adhesion Assay); format: cell-based; settings: TGFβ2 5 ng/mL, 2 hr, GTM-3 and GTM730 cells
Protocol: as §1
TM cell adhesion: TM cell adhesion was determined by means of InnoCyte ECM Cell Adhesion Assay (Calbiochem). TM cells (20,000/well; serum-free medium) were plated onto a vitronectin-coated 96-well plate. Test agents were then added, followed by incubation in a cell culture incubator for the times indicated. Non-adherent cells were then removed by decantation and gentle wash of the wells with PBS. Relative cell attachment was determined by means of fluorescent dye (calcein-AM) uptake.

[8] = tested on: PAI-1; test: PAI-1 ELISA: TGFβ2 effect on PAI-1 levels in GTM-3 cell supernatants; format: cell-based, human; settings: GTM-3 cells
Protocol: PAI-1 mediated effects may contribute to the previously observed TGFβ2-mediated accumulation of extracellular matrix materials in various tissues, including TM tissues. […] TGFβ2-treatment results in both concentration-dependent and time-dependent accumulation of PAI-1 in TM cell supernatants (FIGS. 1 and 2). PAI-1 levels increase gradually in response to TGFβ2, reaching a constant level at approximately 24 h post-treatment.
as §1, §2

Question: Which “effect on TGFβ2-induced total PAI-1 protein in supernatants” value (shortened to “effect … in supernatants”) ([1]; GTM-3 HTM cells, FIGS. 10-11) does the source give for `O=c1ccc2cc(OCCCCc3nnnn3C3CCCCC3)ccc2[nH]1` [3,4-dehydro cilostazol, 3,4-dehydro-cilostazol] here?
Answer: dose-dependent inhibitory effect

Question: And the “share of total activity attributed to cilostazol” value ([2]; may account for)?
Answer: ≥ 50%

Question: And the “activity relative to cilostazol” value ([2]; reportedly)?
Answer: 4-7 fold

Question: Which “effect … in supernatants” value ([1]; GTM-3 HTM cells, FIGS. 10-11) does the source give for `CN(C(=O)CCCOc1ccc2[nH]c(=O)ccc2c1)C1CCCCC1` [cilostamide, Cilostamide] here?
Answer: dose-dependent inhibitory effect

Question: With `O=C1CCc2cc(OCCCCc3nnnn3C3CCCCC3)ccc2N1` [cilostazol, Cilostazol] as the compound, how does the “effect … in supernatants” value ([1]; three HTM cell lines (GTM, NTM470-05, GTM191-04), FIGS. 9a-9c) read?
Answer: dose-dependent inhibitory effect

Question: And the “IOP-lowering effect relative to control (Maxidex vehicle)” value ([3]; 0.3% cilostazol formulation)?
Answer: substantial IOP-lowering effects

Question: What about the “IOP-lowering effect relative to control (Maxidex vehicle)” value ([3]; 1.0% cilostazol formulation) of the same compound?
Answer: substantial IOP-lowering effects

Question: And the “survival of retinal ganglion cells” value [4]?
Answer: increase the survival of retinal ganglion cells

Question: What about the “TGFβ2 and PAI-1 protein expression and PAI-1 activity” value [5] of the same compound?
Answer: suppresses

Question: What about the “blood flow to the optic nerve head and retina” value [6] of the same compound?
Answer: enhance blood flow

Question: Which results are given for “TGFβ2: cytokine transforming growth factor β2”?
Answer: effect on TM cell adhesion compared to controls [7]: did not experience measurable loss of adhesion; time to constant PAI-1 level post-treatment ([8]; TGFβ2 5 ng/mL): approximately 24 h; PAI-1 content in trabecular meshwork cell cultures ([8]; concentration- and time-dependent): increases the PAI-1 content
